According to PubChem BioAssay AID1963851 (Molecular Pharmacology Branch, DTP, NCI, 2024):
Values joined by “and” are separate entries in the source; they are usually repeats but may differ in a detail not shown here. Identical values can stand only once.

System: 188146-221-R-J1-PDC complex spheroid viability
Assay: Anticancer human tumor 188146-221-R-J1-PDC patient-derived colon adenocarcinoma cell line growth inhibition [POLQ]
Details: for viability, T/C: stronger effect = lower value
Method: Multicellular complex tumor spheroid response to Polymerase (POL) inhibitors (novobiocin, ART-558, RP6685) in combination with a variety of drugs and investigational agents in selected tumor cell lines
The POL inhibitors (novobiocin, ART-558, and RP6685) were evaluated both individually and in combination with standard of care and investigational anticancer small molecules within a complex spheroid model of solid tumors. . Complex spheroids include a stromal component modeled by human endothelial cells (HUVEC) and fibroblasts modeled by human mesenchymal stem cells (MSCs). The concentration ranges selected for each drug and investigational agent were based upon clinically achievable concentrations if the clinical Cmax of the agent was known.
Compounds. The drugs and investigational agents: novobiocin (NSC847541), ART-558 (NSC835418), RP-6685 (NSC848927), peposertib (NSC802822), ceralasertib (NSC780249), elimusertib (NSC800525), camonsertib (NSC841442), AZD-1390 (NSC803789), olaparib (NSC753686), talazoparib (NSC767125), rucaparib (NSC756644), sotorasib (NSC818433), MRTX-1133 (NSC836407), SN-38 (NSC673596), topotecan (NSC609699), epotoside (NSC141540), doxorubicin (NSC123127), gemcitabine (NSC613327), 5-fluorouracil (NSC19893), paclitaxel (NSC125973), vemurafenib (NSC761431), MSA-2 (NSC828583), SN-011 (NSC837082), adavosertib (NSC754352), prexasertib (NSC758257), carboplatin (NSC241240) and oxaliplatin (NSC266046), were obtained from the National Cancer Institute (NCI) Developmental Therapeutics Program Chemical Repository (21). The FDA-approved anticancer drug set is available from the Developmental Therapeutics Program at https://dtp.cancer.gov/organization/dscb/obtaining/. […] The stock solutions were prepared in dimethyl sulfoxide (DMSO, Sigma-Aldrich, St. Louis, MO, cat. D2650), except for the platinum compounds which were prepared in saline (Quality Biological, Gaithersburg, MD, cat. 114-055-101), at 800-fold the tested concentration and stored at -70 degrees C prior to their use. All drugs and investigational agents were tested over a range starting from a high concentration at or near the clinical Cmax and decreasing in half-log increments. If the clinical Cmax for an agent had not been determined, the highest concentration tested was 10 microM, except for SN-38, which was tested at a high concentration of 1 microM.
Cell Culture. All cells were maintained in an incubator at 37 degrees C and 5% CO2 with 95% humidity. The PDC lines were cultured according to standard operating procedures established by the NCI PDMR (https://pdmr.cancer.gov). Table 3 of the manuscript, lists the cell lines along with the number of the three cell types plated to form the mct-spheroids and media for tumor cell growth. After thawing, all PDC lines, except 997537-175-T-J1-PDC and 415267-285-R-J2-PDC, were cultured in Matrigel-coated flasks prepared with a working solution of 1X Ham's F-12 nutrient mix, without supplementation (Thermo Fisher Scientific, cat. 11765054), 100 U/mL penicillin-streptomycin (Thermo Fisher Scientific, cat. 15140122), and 2.5% Matrigel (Corning Inc., Corning, NY, cat. 354248) for the first three passages. The two PDC lines 997537-175-T-J1-PDC and 415267-285-R-J2-PDC were cultured on uncoated flasks. The 857933-349-R-J2-PDC line was cultured in 6C/Colon 1B media containing advanced DMEM/F-12 (Thermo Fisher Scientific, cat. 12634028), 10 mM HEPES (Thermo Fisher Scientific, cat. 15630080), 1X GlutaMAX supplement (Thermo Fisher Scientific, cat. 35050061), 0.1 mg/mL primocin (InvivoGen, San Diego, CA, cat. ant-pm-2), 10% defined fetal bovine serum, heat inactivated (HyClone Laboratories Inc., Logan, UT, cat. SH30070.03HI), 50% L-WRN conditioned media (ATCC, cat. CRL-3276), 1.25 mM N-Acetyl-L-cysteine (Sigma-Aldrich, cat. A9165), 10 mM nicotinamide (Sigma-Aldrich, cat. N0636), 1X B-27 supplement (Thermo Fisher Scientific, cat. 17504044), 1X N-2 supplement (Thermo Fisher Scientific, cat. […]
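Note: spheroids exposed to compounds for seven days.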
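Throughout, for viability, T/C: 100% = DMSO vehicle control viability.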

For `CC(=O)O[C@H]1C(=O)[C@@]2(C)[C@H]([C@H](OC(=O)c3ccccc3)[C@]3(O)C[C@H](OC(=O)[C@H](O)[C@@H](NC(=O)c4ccccc4)c4ccccc4)C(C)=C1C3(C)C)[C@]1(OC(C)=O)CO[C@@H]1C[C@@H]2O` + Cc1cccc(N(C)C(=O)C2C(O)CCN2c2nc(C)cc(C(F)(F)F)c2C#N)c1, the IC50 (curve of first compound, second compound 0.0316 µM) was 14.8 nM, the IC50 (curve of first compound, second compound 0.1 µM) was 13.4 nM and the IC50 (curve of first compound, second compound 0.316 µM) was 11.3 nM. It also gave an IC50 (curve of first compound, second compound 1 µM) of 13.5 nM, an IC50 (curve of first compound, second compound 3.16 µM) of 9.98 nM and an IC50 (curve of first compound, second compound 10 µM) of 9.95 nM. It also gave a viability, T/C (second compound 0.0316 µM, first compound 0.00949 µM) of 69%, a viability, T/C (second compound 0.0316 µM, first compound 0.03 µM) of 20.6% and a viability, T/C (second compound 0.0316 µM, first compound 0.0949 µM) of 11.7%. For the same molecule, the viability, T/C (second compound 0.0316 µM, first compound 0.3 µM) was 12.8%, the viability, T/C (second compound 0.0316 µM, first compound 0.949 µM) was 13.3% and the viability, T/C (second compound 0.0316 µM, first compound 3 µM) was 13.3%. The viability, T/C (second compound 0.1 µM, first compound 0.00949 µM) was 61.8%, the viability, T/C (second compound 0.1 µM, first compound 0.03 µM) was 23.3% and the viability, T/C (second compound 0.1 µM, first compound 0.0949 µM) was 12%. For the same molecule, the viability, T/C (second compound 0.1 µM, first compound 0.3 µM) was 11.6%, the viability, T/C (second compound 0.1 µM, first compound 0.949 µM) was 12.8% and the viability, T/C (second compound 0.1 µM, first compound 3 µM) was 12.5%. It also gave a viability, T/C (second compound 0.316 µM, first compound 0.00949 µM) of 55%, a viability, T/C (second compound 0.316 µM, first compound 0.03 µM) of 22.4% and a viability, T/C (second compound 0.316 µM, first compound 0.0949 µM) of 13.6%. The viability, T/C (second compound 0.316 µM, first compound 0.3 µM) was 12.6%, the viability, T/C (second compound 0.316 µM, first compound 0.949 µM) was 13.3% and the viability, T/C (second compound 0.316 µM, first compound 3 µM) was 11.6%. It also gave a viability, T/C (second compound 1 µM, first compound 0.00949 µM) of 63.3%, a viability, T/C (second compound 1 µM, first compound 0.03 µM) of 19.4% and a viability, T/C (second compound 1 µM, first compound 0.0949 µM) of 13.4%. The viability, T/C (second compound 1 µM, first compound 0.3 µM) was 11%, the viability, T/C (second compound 1 µM, first compound 0.949 µM) was 13% and the viability, T/C (second compound 1 µM, first compound 3 µM) was 13.8%. It also gave a viability, T/C (second compound 3.16 µM, first compound 0.00949 µM) of 51.5%, a viability, T/C (second compound 3.16 µM, first compound 0.03 µM) of 17.5% and a viability, T/C (second compound 3.16 µM, first compound 0.0949 µM) of 14.1%. It also gave a viability, T/C (second compound 3.16 µM, first compound 0.3 µM) of 12.1%, a viability, T/C (second compound 3.16 µM, first compound 0.949 µM) of 13.2% and a viability, T/C (second compound 3.16 µM, first compound 3 µM) of 16.4%. For the same molecule, the viability, T/C (second compound 10 µM, first compound 0.00949 µM) was 51.4%, the viability, T/C (second compound 10 µM, first compound 0.03 µM) was 17.4% and the viability, T/C (second compound 10 µM, first compound 0.0949 µM) was 14.1%. The viability, T/C (second compound 10 µM, first compound 0.3 µM) was 14.8%, the viability, T/C (second compound 10 µM, first compound 0.949 µM) was 14.6% and the viability, T/C (second compound 10 µM, first compound 3 µM) was 14.5%.

With `O=C(Nc1ccc(O)c(NS(=O)(=O)c2ccc(F)cc2)c1)c1ccc(-c2ccccc2)cc1` the viability, T/C (compound 0.0316 µM) was 93.2% and 100% and 110%, the viability, T/C (compound 0.1 µM) was 98.5% and 107% and 104% and the viability, T/C (compound 0.316 µM) was 89.5% and 95.1% and 93.5%. The viability, T/C (compound 1 µM) was 93.2% and 103% and 118%, the viability, T/C (compound 3.16 µM) was 99.4% and 81.3% and 100% and the viability, T/C (compound 10 µM) was 59.1% and 73.5% and 78.4%. The IC50 (curve of compound) was greater than 10000 nM.
